Reference: PubChem BioAssay AID256 (DTP/NCI, 2004)
Toxic doses and inconclusive results are not listed. Rule for the calls: active = survival T/C of 150% or more; inactive = T/C below 125% in these data.

System: CD2F1 mice, L1210 leukemia ip, survival T/C
Experiment: NCI In Vivo Anticancer Drug Screen. Data for tumor model L1210 Leukemia (intraperitoneal) in CD2F1 (CDF1) mice
Conditions: higher = longer survival
Method in brief: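 In this screen, transplantable tumors were grown in mice given either the compound or its vehicle. Results were expressed as the treated measurement relative to the control measurement.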

[1] = endpoint: mean survival time, dose: 25.0 mg/kg/injection, schedule: Q01DX009 (ip), vehicle: saline with Tween-80
[2] = endpoint: mean survival time, dose: 50.0 mg/kg/injection, schedule: Q01DX009 (ip), vehicle: saline with Tween-80
[3] = endpoint: mean survival time, dose: 100.0 mg/kg/injection, schedule: Q01DX009 (ip), vehicle: saline with Tween-80
[4] = endpoint: mean survival time, dose: 100.0 mg/kg/injection, schedule: Q01DX001 (ip), vehicle: saline with Tween-80
[5] = endpoint: mean survival time, dose: 400.0 mg/kg/injection, schedule: Q01DX001 (ip), vehicle: saline with Tween-80
[6] = endpoint: mean survival time, dose: 100.0 mg/kg/injection, schedule: Q04DX003 (ip), vehicle: saline with Tween-80
[7] = endpoint: mean survival time, dose: 100.0 mg/kg/injection, schedule: Q04DX003 (ip), vehicle: saline
[8] = endpoint: mean survival time, dose: 200.0 mg/kg/injection, schedule: Q04DX003 (ip), vehicle: saline
[9] = endpoint: mean survival time, dose: 400.0 mg/kg/injection, schedule: Q04DX003 (ip), vehicle: saline
[10] = endpoint: mean survival time, dose: 100.0 mg/kg/injection, schedule: Q04DX002 (ip), vehicle: saline with Tween-80
[11] = endpoint: mean survival time, dose: 200.0 mg/kg/injection, schedule: Q04DX002 (ip), vehicle: saline with Tween-80
[12] = endpoint: mean survival time, dose: 200.0 mg/kg/injection, schedule: Q01DX009 (ip), vehicle: saline with Tween-80
[13] = endpoint: mean survival time, dose: 400.0 mg/kg/injection, schedule: Q01DX009 (ip), vehicle: saline with Tween-80
[14] = endpoint: mean survival time, dose: 100.0 mg/kg/injection, schedule: Q01DX001 (ip), vehicle: saline
[15] = endpoint: mean survival time, dose: 200.0 mg/kg/injection, schedule: Q04DX003 (ip), vehicle: saline with Tween-80
[16] = endpoint: mean survival time, dose: 400.0 mg/kg/injection, schedule: Q04DX003 (ip), vehicle: saline with Tween-80

Measured: T/C

CCCCC1CCCCCCc2[nH]c(/C=C3\N=C(c4ccc[nH]4)C=C3OC)cc21 (configuration not stated)
inactive: endpoint: mean survival time, dose: 0.12 mg/kg/injection, schedule: Q01DX009 (ip), vehicle: saline with Tween-80 103 % of control | endpoint: mean survival time, dose: 0.25 mg/kg/injection, schedule: Q01DX009 (ip), vehicle: saline with Tween-80 107 % of control | endpoint: mean survival time, dose: 0.5 mg/kg/injection, schedule: Q01DX009 (ip), vehicle: saline with Tween-80 116 % of control | endpoint: mean survival time, dose: 1.0 mg/kg/injection, schedule: Q01DX009 (ip), vehicle: saline with Tween-80 105 % of control | endpoint: mean survival time, dose: 2.0 mg/kg/injection, schedule: Q01DX009 (ip), vehicle: saline with Tween-80 106 % of control

C#CC[N+](CC)(CC)CCNC(=O)CCCCCCCCCCCCCCC
inactive: endpoint: mean survival time, dose: 75.0 mg/kg/injection, schedule: Q01DX001 (ip), vehicle: saline 102 % of control

CS(=O)(=O)SC(F)(F)F
inactive: endpoint: mean survival time, dose: 5.0 mg/kg/injection, schedule: Q01DX001 (ip), vehicle: saline 103 % of control

O=c1nc(Sc2ccccc2)ccn1C1OC(CO)C(O)C1O (configuration not stated)
inactive: endpoint: mean survival time, dose: 12.5 mg/kg/injection, schedule: Q01DX005 (ip), vehicle: distilled water + Tween-80 106 % of control | endpoint: mean survival time, dose: 25.0 mg/kg/injection, schedule: Q01DX005 (ip), vehicle: distilled water + Tween-80 103 % of control | endpoint: mean survival time, dose: 50.0 mg/kg/injection, schedule: Q01DX005 (ip), vehicle: distilled water + Tween-80 106 % of control | endpoint: mean survival time, dose: 100.0 mg/kg/injection, schedule: Q01DX005 (ip), vehicle: distilled water + Tween-80 110 % of control | endpoint: mean survival time, dose: 200.0 mg/kg/injection, schedule: Q01DX005 (ip), vehicle: distilled water + Tween-80 118 % of control

O=C1/C(=C/c2ccccc2)CCC/C1=C\c1ccccc1
inactive: [1] 94 % of control | [2] 94 % of control | [3] 89 % of control

CCCCC=C(C1CCCC1C)C1CCCC1C (configuration not stated)
inactive: [4] 97 % of control | endpoint: mean survival time, dose: 200.0 mg/kg/injection, schedule: Q01DX001 (ip), vehicle: saline with Tween-80 102 % of control | [5] 94 % of control

CC1=CCC=C(CNc2ncnc3nc[nH]c23)C1
inactive: [6] 87 % of control

CCn1c(=S)[nH]c(=O)c2n[nH]nc21
inactive: endpoint: mean survival time, dose: 100.0 mg/kg/injection, schedule: Q01DX009 (ip), vehicle: acetone 100 % of control | endpoint: mean survival time, dose: 200.0 mg/kg/injection, schedule: Q01DX009 (ip), vehicle: acetone 94 % of control

OC1COCOC1C1OCOCC1O (configuration not stated)
inactive: [7] 95 % of control | [8] 95 % of control | [9] 97 % of control

Cc1nc(N)[nH]c(=O)c1CCCN
inactive: [7] 95 % of control | [8] 98 % of control | [9] 95 % of control

O=[N+]([O-])c1ccc2nc3ccscc-3c2c1
inactive: endpoint: mean survival time, dose: 100.0 mg/kg/injection, schedule: Q01DX001 (ip), vehicle: acetone 100 % of control | endpoint: mean survival time, dose: 200.0 mg/kg/injection, schedule: Q01DX001 (ip), vehicle: acetone 100 % of control | endpoint: mean survival time, dose: 400.0 mg/kg/injection, schedule: Q01DX001 (ip), vehicle: acetone 92 % of control

Nc1ccccc1Nc1ccncc1
inactive: [1] 100 % of control | [2] 101 % of control | [6] 91 % of control

COc1ccc(NC(=O)Nc2cccc(Cl)c2)c(OC)c1
inactive: [10] 88 % of control | [11] 98 % of control

O=C(O)c1ccc(CC23CC4CC(CC(C4)C2)C3)cc1
inactive: [4] 91 % of control | [3] 96 % of control | [12] 91 % of control | [5] 91 % of control | [13] 86 % of control

O=[N+]([O-])c1ccc(CSc2ncnc3c2ncn3C2OC(CO)C(O)C2O)cc1 (configuration not stated)
inactive: endpoint: median survival time, dose: 0.1 mg/kg/injection, schedule: Q01DX009 (ip), vehicle: saline 100 % of control | endpoint: median survival time, dose: 1.0 mg/kg/injection, schedule: Q01DX009 (ip), vehicle: saline 105 % of control | endpoint: median survival time, dose: 10.0 mg/kg/injection, schedule: Q01DX009 (ip), vehicle: saline 107 % of control

CC(=O)[O][Hg][c]1c(C)c(C)[c]([Hg][O]C(C)=O)c(C)c1C
inactive: endpoint: mean survival time, dose: 25.0 mg/kg/injection, schedule: Q04DX002 (ip), vehicle: saline with Tween-80 87 % of control | endpoint: mean survival time, dose: 50.0 mg/kg/injection, schedule: Q04DX002 (ip), vehicle: saline with Tween-80 87 % of control

O=C1OCC/C1=C1/CCOC1
inactive: [1] 101 % of control | [2] 101 % of control

c1ccc(-c2nc(-c3nn[nH]n3)c3ccccc3n2)cc1
inactive: [14] 89 % of control | endpoint: mean survival time, dose: 200.0 mg/kg/injection, schedule: Q01DX001 (ip), vehicle: saline 97 % of control

COc1ccc(NC(=O)Oc2cc(C(C)C)ccc2C)cc1
inactive: [10] 98 % of control | [11] 98 % of control | endpoint: mean survival time, dose: 400.0 mg/kg/injection, schedule: Q04DX002 (ip), vehicle: saline with Tween-80 94 % of control

NC(=O)c1[nH]nc(C2OC(COP(=O)(O)O)C(O)C2O)c1O (configuration not stated)
inactive: endpoint: median survival time, dose: 6.25 mg/kg/injection, schedule: Q01DX005 (ip), vehicle: saline 122 % of control | endpoint: median survival time, dose: 12.5 mg/kg/injection, schedule: Q01DX005 (ip), vehicle: saline 93 % of control | endpoint: median survival time, dose: 25.0 mg/kg/injection, schedule: Q01DX005 (ip), vehicle: saline 93 % of control

CN=[N+]([O-])C1(OC(C)=O)CCCC1
inactive: endpoint: mean survival time, dose: 50.0 mg/kg/injection, schedule: Q01DX001 (ip), vehicle: saline 110 % of control | [14] 117 % of control

ClCCN(Cc1ccccc1)Cc1ccccc1
inactive: endpoint: mean survival time, dose: 3.13 mg/kg/injection, schedule: Q01DX009 (ip), vehicle: saline with Tween-80 100 % of control | endpoint: mean survival time, dose: 6.25 mg/kg/injection, schedule: Q01DX009 (ip), vehicle: saline with Tween-80 102 % of control | endpoint: mean survival time, dose: 12.5 mg/kg/injection, schedule: Q01DX009 (ip), vehicle: saline with Tween-80 96 % of control

Clc1c(Cl)c(Cl)c(Cl)c(Cl)c1Cl
inactive: [3] 97 % of control | [6] 97 % of control | [12] 100 % of control | [15] 94 % of control | [13] 103 % of control | [16] 102 % of control

O=C(c1ccc([N+](=O)[O-])cc1)n1ncc2ccccc21
inactive: endpoint: median survival time, dose: 25.0 mg/kg/injection, schedule: Q04DX002 (ip), vehicle: saline with Tween-80 100 % of control | endpoint: median survival time, dose: 50.0 mg/kg/injection, schedule: Q04DX002 (ip), vehicle: saline with Tween-80 100 % of control | endpoint: median survival time, dose: 100.0 mg/kg/injection, schedule: Q04DX002 (ip), vehicle: saline with Tween-80 100 % of control | endpoint: median survival time, dose: 200.0 mg/kg/injection, schedule: Q04DX002 (ip), vehicle: saline with Tween-80 100 % of control

CC(=O)OC1CCC2(C)C(=CCC3C2CCC2(C)C(C(C)CCCC(C)C)CCC32)C1 (configuration not stated)
inactive: endpoint: mean survival time, dose: 50.0 mg/kg/injection, schedule: Q01DX009 (ip), vehicle: Klucel (hydroxypropylcellulose) (HPC) 96 % of control | endpoint: mean survival time, dose: 100.0 mg/kg/injection, schedule: Q01DX009 (ip), vehicle: Klucel (hydroxypropylcellulose) (HPC) 93 % of control | endpoint: mean survival time, dose: 200.0 mg/kg/injection, schedule: Q01DX009 (ip), vehicle: Klucel (hydroxypropylcellulose) (HPC) 86 % of control

COc1ccc2c(c1)c(C(=O)O)cc(=O)n2C
inactive: endpoint: mean survival time, dose: 100.0 mg/kg/injection, schedule: Q01DX009 (ip), vehicle: saline sonified 101 % of control | [6] 97 % of control | endpoint: mean survival time, dose: 200.0 mg/kg/injection, schedule: Q01DX009 (ip), vehicle: saline sonified 95 % of control | [15] 102 % of control | endpoint: mean survival time, dose: 400.0 mg/kg/injection, schedule: Q01DX009 (ip), vehicle: saline sonified 95 % of control | [16] 96 % of control

O=C(CN1CCOCC1)Nc1nc(-c2ccc(Cl)cc2)cs1
inactive: endpoint: median survival time, dose: 12.5 mg/kg/injection, schedule: Q01DX009 (ip), vehicle: saline with Tween-80 102 % of control | endpoint: median survival time, dose: 25.0 mg/kg/injection, schedule: Q01DX009 (ip), vehicle: saline with Tween-80 98 % of control | endpoint: median survival time, dose: 50.0 mg/kg/injection, schedule: Q01DX009 (ip), vehicle: saline with Tween-80 98 % of control | endpoint: median survival time, dose: 100.0 mg/kg/injection, schedule: Q01DX009 (ip), vehicle: saline with Tween-80 105 % of control | endpoint: median survival time, dose: 200.0 mg/kg/injection, schedule: Q01DX009 (ip), vehicle: saline with Tween-80 93 % of control

COC(=O)C(Cl)C(Cl)c1ccccc1 (configuration not stated)
inactive: [3] 100 % of control | [12] 105 % of control | [13] 101 % of control
